Test results from patent US11976057B2, “MrgX2 antagonists” (GlaxoSmithKline Intellectual Property Development Limited, priority 2020, dated 2024).
Where a name gives a salt, the structure may show the parent alone.

Target: T1, human MRGPRX2 (Homo sapiens, UniProt Q96LB1)
T1 sequence (Q96LB1 1-330): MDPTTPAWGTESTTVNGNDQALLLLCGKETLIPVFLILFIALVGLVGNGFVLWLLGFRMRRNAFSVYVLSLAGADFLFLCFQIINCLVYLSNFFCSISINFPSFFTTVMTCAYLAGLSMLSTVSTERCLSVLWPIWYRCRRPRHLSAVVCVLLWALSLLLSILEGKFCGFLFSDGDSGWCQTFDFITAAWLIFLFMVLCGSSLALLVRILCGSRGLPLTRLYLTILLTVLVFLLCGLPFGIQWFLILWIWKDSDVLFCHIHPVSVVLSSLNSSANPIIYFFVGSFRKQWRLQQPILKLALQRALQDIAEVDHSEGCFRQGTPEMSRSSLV
Assay: Ca2+ mobilization assay (FLIPR TETRA): inhibition of Cortistatin-14 mediated MRGPRX2 activation

IC50	Structure (SMILES)
0.1 to 3.16 µM	CC(C(=O)Nc1ccc(OCC2CCC2)cn1)N1CCC(F)(F)[C@@H](c2ccc(=O)[nH]c2)C1 (stereo partly drawn) [Example 30, N-(5-(cyclobutyl-methoxy)pyridin-2-yl)-2-((S)-4,4-difluoro-3-(6-oxo-1,6-dihydropyridin-3-yl)piperidin-1-yl)propanamide]
0.1 to 3.16 µM	CC(Oc1ccc(NC(=O)C(C)N2CCC(F)(F)[C@@H](c3ccc(=O)[nH]c3)C2)nc1)C1CC1 (stereo partly drawn) [Example 31, N-(5-(1-cyclopropyl-ethoxy)pyridin-2-yl)-2-((S)-4,4-difluoro-3-(6-oxo-1,6-dihydropyridin-3-yl)piperidin-1-yl)propanamide]
0.1 to 3.16 µM	C[C@@H](C(=O)Nc1ccc2c(n1)CN(C1CC1)C2)N1CCC(F)(F)[C@@H](c2ccc(=O)[nH]c2)C1 [Example 32, (S)-N-(6-cyclopropyl-6,7-dihydro-5H-pyrrolo[3,4-b]pyridin-2-yl)-2-((S)-4,4-difluoro-3-(6-oxo-1,6-dihydropyridin-3-yl)piperidin-1-yl)propanamide]
0.1 to 3.16 µM	CC(C(=O)Nc1ccc(CC2CCCC2)cn1)N1CCC(F)(F)[C@@H](c2ccc(=O)[nH]c2)C1 (stereo partly drawn) [Example 33, N-(5-(cyclopentyl-methyl)pyridin-2-yl)-2-((S)-4,4-difluoro-3-(6-oxo-1,6-dihydropyridin-3-yl)piperidin-1-yl)propanamide]
0.1 to 3.16 µM	C[C@@H](C(=O)Nc1cc2ccccc2cn1)N1CCC(F)(F)[C@@H](c2ccc(=O)[nH]c2)C1 [Example 34, (S)-2-((S)-4,4-difluoro-3-(6-oxo-1,6-dihydropyridin-3-yl)piperidin-1-yl)-N-(isoquinolin-3-yl)propanamide]
0.1 to 3.16 µM	C[C@@H](C(=O)Nc1ncc(OCC2CC2)cn1)N1CCC(F)(F)[C@@H](c2ccc(=O)[nH]c2)C1 [Example 35, (S)-N-(5-(cyclopropyl-methoxy)pyrimidin-2-yl)-2-((S)-4,4-difluoro-3-(6-oxo-1,6-dihydropyridin-3-yl)piperidin-1-yl)propanamide]
0.1 to 3.16 µM	CC(C(=O)Nc1ccc(OCC2CC2(F)F)cn1)N1CCC(F)(F)[C@@H](c2ccc(=O)[nH]c2)C1 (stereo partly drawn) [Example 36, 2-((S)-4,4-difluoro-3-(6-oxo-1,6-dihydropyridin-3-yl)piperidin-1-yl)-N-(5-((2,2-difluorocyclo-propyl)methoxy)pyridin-2-yl)propanamide]
0.1 to 3.16 µM	C[C@@H](C(=O)Nc1ccc(C(=O)OC2CCC2)cn1)N1CCC(F)(F)[C@@H](c2ccc(=O)[nH]c2)C1 [Example 37, cyclobutyl 6-((S)-2-((S)-4,4-difluoro-3-(6-oxo-1,6-dihydropyridin-3-yl)piperidin-1-yl)propanamido) nicotinate]
0.1 to 3.16 µM	C[C@@H](C(=O)Nc1ccc(OCc2ncco2)cn1)N1CCC(F)(F)[C@@H](c2ccc(=O)[nH]c2)C1 [Example 38, (S)-2-((S)-4,4-difluoro-3-(6-oxo-1,6-dihydropyridin-3-yl)piperidin-1-yl)-N-(5-(oxazol-2-ylmethoxy)pyridin-2-yl)propanamide]
0.1 to 3.16 µM	CC(C(=O)Nc1cc(F)c(F)cn1)N1CCC(F)(F)[C@@H](c2ccc(=O)[nH]c2)C1 (stereo partly drawn) [Example 39, 2-((S)-4,4-difluoro-3-(6-oxo-1,6-dihydropyridin-3-yl)piperidin-1-yl)-N-(4,5-difluoropyridin-2-yl)propanamide]
0.1 to 3.16 µM	CC(C(=O)Nc1cc2cnn(CC3CC3)c2cn1)N1CCC(F)(F)[C@@H](c2ccc(=O)[nH]c2)C1 (stereo partly drawn) [Example 40, N-(1-(cyclopropyl-methyl)-1H-pyrazolo[3,4-c]pyridin-5-yl)-2-((S)-4,4-difluoro-3-(6-oxo-1,6-dihydropyridin-3-yl)piperidin-1-yl)propanamide]
0.1 to 3.16 µM	CC(C(=O)Nc1ccc(CC2CC2)cn1)N1CCC(F)(F)[C@@H](c2ccc(=O)[nH]c2)C1 (stereo partly drawn) [Example 41, N-(5-(cyclopropyl-methyl)pyridin-2-yl)-2-((S)-4,4-difluoro-3-(6-oxo-1,6-dihydropyridin-3-yl)piperidin-1-yl)propanamide]
0.1 to 3.16 µM	CC(C(=O)Nc1ccc(C2CCCCC2)cn1)N1CCC(F)(F)[C@@H](c2ccc(=O)[nH]c2)C1 (stereo partly drawn) [Example 42, N-(5-cyclohexyl-pyridin-2-yl)-2-((S)-4,4-difluoro-3-(6-oxo-1,6-dihydropyridin-3-yl)piperidin-1-yl)propanamide]
3.16 to 31.6 µM	COc1ccc(NC(=O)C(C)N2CCC(F)(F)[C@@H](c3ccc(=O)[nH]c3)C2)nn1 (stereo partly drawn) [Example 43, 2-((S)-4,4-difluoro-3-(6-oxo-1,6-dihydropyridin-3-yl)piperidin-1-yl)-N-(6-methoxy-pyridazin-3-yl)propanamide]
3.16 to 31.6 µM	COc1ccc(NC(=O)C(C)N2CCC(F)(F)[C@@H](c3ccc(=O)[nH]c3)C2)nc1 (stereo partly drawn) [Example 44, 2-((S)-4,4-difluoro-3-(6-oxo-1,6-dihydropyridin-3-yl)piperidin-1-yl)-N-(5-methoxypyridin-2-yl)propanamide]
3.16 to 31.6 µM	CC(C(=O)Nc1ccc(Cc2cccnc2)cn1)N1CCC(F)(F)[C@@H](c2ccc(=O)[nH]c2)C1 (stereo partly drawn) [Example 45, 2-((S)-4,4-difluoro-3-(6-oxo-1,6-dihydropyridin-3-yl)piperidin-1-yl)-N-(5-(pyridin-3-ylmethyl)pyridin-2-yl)propanamide]
0.1 to 3.16 µM	C[C@@H](C(=O)Nc1ccc(C(=O)OC2CCCC2)cn1)N1CCC(F)(F)[C@@H](c2ccc(=O)[nH]c2)C1 [Example 46, cyclopentyl 6-((S)-2-((S)-4,4-difluoro-3-(6-oxo-1,6-dihydropyridin-3-yl)piperidin-1-yl)propanamido) nicotinate]
0.1 to 3.16 µM	CC(C(=O)Nc1ccc(OCC2CCCC2)cn1)N1CCC(F)(F)[C@@H](c2ccc(=O)[nH]c2)C1 (stereo partly drawn) [Example 47, N-(5-(cyclopentyl-methoxy)pyridin-2-yl)-2-((S)-4,4-difluoro-3-(6-oxo-1,6-dihydropyridin-3-yl)piperidin-1-yl)propanamide]
0.1 to 3.16 µM	CC(C(=O)Nc1ccc(OCC(F)F)cn1)N1CCC(F)(F)[C@@H](c2ccc(=O)[nH]c2)C1 (stereo partly drawn) [Example 49, 2-((S)-4,4-difluoro-3-(6-oxo-1,6-dihydropyridin-3-yl)piperidin-1-yl)-N-(5-(2,2-difluoroethoxy)pyridin-2-yl)propanamide]
0.1 to 3.16 µM	CC(C(=O)Nc1ccc(-c2cccs2)cn1)N1CCC(F)(F)[C@@H](c2ccc(=O)[nH]c2)C1 (stereo partly drawn) [Example 50, 2-((S)-4,4-difluoro-3-(6-oxo-1,6-dihydropyridin-3-yl)piperidin-1-yl)-N-(5-(thiophen-2-yl)pyridin-2-yl)propanamide]
0.1 to 3.16 µM	CC(C(=O)Nc1cc2ccn(CC3CC3)c2cn1)N1CCC(F)(F)[C@@H](c2ccc(=O)[nH]c2)C1 (stereo partly drawn) [Example 51, N-(1-(cyclopropyl-methyl)-1H-pyrrolo[2,3-c]pyridin-5-yl)-2-((S)-4,4-difluoro-3-(6-oxo-1,6-dihydropyridin-3-yl)piperidin-1-yl)propanamide]
0.1 to 3.16 µM	CC(C(=O)Nc1ccc(Cc2nccs2)cn1)N1CCC(F)(F)[C@@H](c2ccc(=O)[nH]c2)C1 (stereo partly drawn) [Example 52, 2-((S)-4,4-difluoro-3-(6-oxo-1,6-dihydropyridin-3-yl)piperidin-1-yl)-N-(5-(thiazol-2-ylmethyl)pyridin-2-yl)propanamide]
3.16 to 31.6 µM	CC(C(=O)Nc1ccc(Cc2ncco2)cn1)N1CCC(F)(F)[C@@H](c2ccc(=O)[nH]c2)C1 (stereo partly drawn) [Example 53, 2-((S)-4,4-difluoro-3-(6-oxo-1,6-dihydropyridin-3-yl)piperidin-1-yl)-N-(5-(oxazol-2-ylmethy)pyridin-2-yl)propanamide]
0.1 to 3.16 µM	C[C@@H](C(=O)Nc1ccc2ccccc2n1)N1CCC(F)(F)[C@@H](c2ccc(=O)[nH]c2)C1 [Example 54, (S)-2-((S)-4,4-difluoro-3-(6-oxo-1,6-dihydropyridin-3-yl)piperidin-1-yl)-N-(quinolin-2-yl)propanamide]
3.16 to 31.6 µM	CC(C(=O)Nc1ccc(-c2ccn(C)n2)cn1)N1CCC(F)(F)[C@@H](c2ccc(=O)[nH]c2)C1 (stereo partly drawn) [Example 55, 2-((S)-4,4-difluoro-3-(6-oxo-1,6-dihydropyridin-3-yl)piperidin-1-yl)-N-(5-(1-methyl-1H-pyrazol-3-yl)pyridin-2-yl)propanamide]
3.16 to 31.6 µM	CC(C(=O)Nc1ccc(-c2ccon2)cn1)N1CCC(F)(F)[C@@H](c2ccc(=O)[nH]c2)C1 (stereo partly drawn) [Example 56, 2-((S)-4,4-difluoro-3-(6-oxo-1,6-dihydropyridin-3-yl)piperidin-1-yl)-N-(5-(isoxazol-3-yl)pyridin-2-yl)propanamide]
0.1 to 3.16 µM	CC(C(=O)Nc1ccc(Cc2ccccn2)cn1)N1CCC(F)(F)[C@@H](c2ccc(=O)[nH]c2)C1 (stereo partly drawn) [Example 57, 2-((S)-4,4-difluoro-3-(6-oxo-1,6-dihydropyridin-3-yl)piperidin-1-yl)-N-(5-(pyridin-2-ylmethyl)pyridin-2-yl)propanamide hydrochloride]
0.1 to 3.16 µM	CC(C(=O)Nc1ccc(Oc2ccc(C#N)cc2)cn1)N1CCC(F)(F)C(c2ccc(=O)[nH]c2)C1 (stereo not drawn) [Example 58, N-(5-(4-cyanophenoxy)pyridin-2-yl)-2-(4,4-difluoro-3-(6-oxo-1,6-dihydropyridin-3-yl)piperidin-1-yl)propanamide]
0.1 to 3.16 µM	C[C@@H](C(=O)Nc1ccc(Oc2cccnc2)cn1)N1CCC(F)(F)[C@@H](c2ccc(=O)[nH]c2)C1 [Example 59, (S)-2-((S)-4,4-difluoro-3-(6-oxo-1,6-dihydropyridin-3-yl)piperidin-1-yl)-N-(5-(pyridin-3-yloxy)pyridin-2-yl)propanamide]
0.01 to 0.1 µM	C[C@@H](C(=O)Nc1cnc(Oc2ccccc2)cn1)N1CCC(F)(F)[C@@H](c2ccc(=O)[nH]c2)C1 [Example 60, (S)-2-((S)-4,4-difluoro-3-(6-oxo-1,6-dihydropyridin-3-yl)piperidin-1-yl)-N-(5-phenoxypyrazin-2-yl)propanamide]
